Experimental data: US4322428A, “2(4-Fluorophenyl)-4,5,-bis(4-methoxyphenyl)thiazole and method of use” (Eli Lilly and Company, priority 1980, dated 1982)

tested on: writhing in Cox standard strain albino male mice; experiment: mouse-writhing test (analgesic), acetic acid-induced writhing; format: in vivo; settings: oral (p.o.), corn oil-acacia emulsion, writhing induced by intraperitoneal 0.55% (55 mg/kg) acetic acid, read-out: ED50 (effective dosage needed to inhibit 50% of the writhing)
Procedure: An intraperitoneal injection of 0.55% (55 mg/kg.) acetic acid induces writhing in the mice, which is characterized by contraction of the abdominal musculature, extension of the hindlegs, and rotation of the trunk. The compounds were administered in a corn oil-acacia emulsion. The number of writhes is counted for both the control and treated animals and the percent inhibition computed as follows: [formula]
All dosages were given orally (p.o.) and are expressed in mg/kg. The term "ED50 " means an effective dosage needed to inhibit 50% of the writhing.

Compared with `COc1ccc(-c2nc(-c3ccccc3)sc2-c2ccc(OC)cc2)cc1` [2-Phenyl-4,5-bis(4-methoxyphenyl)thiazole], `COc1ccc(-c2nc(-c3ccc(F)cc3)sc2-c2ccc(OC)cc2)cc1` [2-(4-Fluorophenyl)-4,5-bis(4-methoxyphenyl)thiazole] is 2.8-fold lower in ED50: 2.3 mg/kg for the first, 0.82 mg/kg for the second.

Going from `COc1ccc(-c2nc(-c3ccc(Cl)cc3)sc2-c2ccc(OC)cc2)cc1` [2-(4-Chlorophenyl)-4,5-bis(4-methoxyphenyl)thiazole] to `COc1ccc(-c2nc(-c3ccc(Br)cc3)sc2-c2ccc(OC)cc2)cc1` [2-(4-Bromophenyl)-4,5-bis(4-methoxyphenyl)thiazole], the ED50 falls from 3.75 mg/kg to 1.46 mg/kg (2.6-fold).
